From ChEMBL document CHEMBL1201861, “Genomics of Drug Sensitity in Cancer screening data, Wellcome Trust Sanger Institute”

How the values were obtained:
Experiment in all cases: cells
[1] = test system: TE-6; assay type: functional, cell-based, Homo sapiens; settings: Homo sapiens, TE-6;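 further: growth inhibition of TE-6 cells, read out with a cell viability assay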
Description: SANGER: Inhibition of human TE-6 cell growth in a cell viability assay.

[2] = test system: MSTO-211H; assay type: functional, cell-based, Homo sapiens; settings: Homo sapiens, MSTO-211H
Description: SANGER: Inhibition of human MSTO-211H cell growth in a cell viability assay.

[3] = test system: CP66-MEL; assay type: functional, cell-based, Homo sapiens; settings: Homo sapiens, CP66-MEL;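 further: growth inhibition of CP66-MEL cells determined in a cell viability assay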
Description: SANGER: Inhibition of human CP66-MEL cell growth in a cell viability assay.

[4] = test system: SNU-5; assay type: functional, cell-based, Homo sapiens; settings: Homo sapiens, SNU-5;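 further: cell viability readout used to measure growth inhibition in human NCI-SNU-5 cells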
Description: SANGER: Inhibition of human NCI-SNU-5 cell growth in a cell viability assay.

[5] = test system: CAS-1; assay type: functional, cell-based, Homo sapiens; settings: Homo sapiens, CAS-1;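 further: growth inhibition of CAS-1 cells, measured with a cell viability assay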
Description: SANGER: Inhibition of human CAS-1 cell growth in a cell viability assay.

[6] = test system: HDLM-2; assay type: functional, cell-based, Homo sapiens; settings: Homo sapiens, HDLM-2;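 further: cell viability assay measuring suppression of HDLM-2 proliferation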
Description: SANGER: Inhibition of human HDLM-2 cell growth in a cell viability assay.

[7] = test system: TE-1; assay type: functional, cell-based, Homo sapiens; settings: Homo sapiens, TE-1;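 further: growth inhibition of the human TE-1 cell line, read out with a cell viability assay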
Description: SANGER: Inhibition of human TE-1 cell growth in a cell viability assay.

[8] = test system: MZ7-mel; assay type: functional, cell-based, Homo sapiens; settings: Homo sapiens, MZ7-mel;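 further: growth inhibition of human MZ7-mel cells, measured by a cell viability assay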
Description: SANGER: Inhibition of human MZ7-mel cell growth in a cell viability assay.

[9] = test system: RS4-11; assay type: functional, cell-based, Homo sapiens; settings: Homo sapiens, RS4-11;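 further: growth inhibition of RS4-11 cells, read out by a cell viability assay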
Description: SANGER: Inhibition of human RS4-11 cell growth in a cell viability assay.

[10] = test system: NCI-H1155; assay type: functional, cell-based, Homo sapiens; settings: Homo sapiens, NCI-H1155;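 further: cell growth inhibition measured by a viability assay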
Description: SANGER: Inhibition of human NCI-H1155 cell growth in a cell viability assay.

[11] = test system: EM-2; assay type: functional, cell-based, Homo sapiens; settings: Homo sapiens, EM-2;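 further: growth inhibition of EM-2 cells, read out with a cell viability assay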
Description: SANGER: Inhibition of human EM-2 cell growth in a cell viability assay.

[12] = test system: UACC-257; assay type: functional, cell-based, Homo sapiens; settings: Homo sapiens, UACC-257
Description: SANGER: Inhibition of human UACC-257 cell growth in a cell viability assay.

[13] = test system: D-263MG; assay type: functional, cell-based, Homo sapiens; settings: Homo sapiens, D-263MG
Description: SANGER: Inhibition of human D-263MG cell growth in a cell viability assay.

[14] = test system: VA-ES-BJ; assay type: functional, cell-based, Homo sapiens; settings: Homo sapiens, VA-ES-BJ;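 further: growth inhibition of the VA-ES-BJ cell line, read out by a cell viability assay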
Description: SANGER: Inhibition of human VA-ES-BJ cell growth in a cell viability assay.

[15] = test system: NTERA-2-cl-D1; assay type: functional, cell-based, Homo sapiens; settings: Homo sapiens, NTERA-2-cl-D1;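 further: inhibition of cell growth, measured with a cell viability assay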
Description: SANGER: Inhibition of human NTERA-S-cl-D1 cell growth in a cell viability assay.

[16] = test system: MV4-11; assay type: functional, cell-based, Homo sapiens, MV-4-11; settings: Homo sapiens, MV4-11;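 further: cell viability readout measuring growth inhibition of human MV-4-11 cells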
Description: SANGER: Inhibition of human MV-4-11 cell growth in a cell viability assay.

[17] = test system: SW 954; assay type: functional, cell-based, Homo sapiens; settings: Homo sapiens, SW 954;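 further: growth inhibition of SW954 human cancer cells, read out as cell viability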
Description: SANGER: Inhibition of human SW954 cell growth in a cell viability assay.

[18] = test system: TE-8; assay type: functional, cell-based, Homo sapiens; settings: Homo sapiens, TE-8;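 further: growth inhibition of TE-8 cells, measured with a cell viability readout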
Description: SANGER: Inhibition of human TE-8 cell growth in a cell viability assay.

[19] = test system: MOLT-4; assay type: functional, cell-based, Homo sapiens; settings: Homo sapiens, MOLT-4;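 further: growth inhibition of MOLT-4 cells, determined with a cell viability readout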
Description: SANGER: Inhibition of human MOLT-4 cell growth in a cell viability assay.

[20] = test system: DU-4475; assay type: functional, cell-based, Homo sapiens; settings: Homo sapiens, DU-4475
Description: SANGER: Inhibition of human DU-4475 cell growth in a cell viability assay.

[21] = test system: BT-474; assay type: functional, cell-based, Homo sapiens; settings: Homo sapiens, BT-474
Description: SANGER: Inhibition of human BT-474 cell growth in a cell viability assay.

[22] = test system: MHH-PREB-1; assay type: functional, cell-based, Homo sapiens; settings: Homo sapiens, MHH-PREB-1;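 further: cell viability assay measuring inhibition of proliferation of human MHH-PREB-1 cells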
Description: SANGER: Inhibition of human MHH-PREB-1 cell growth in a cell viability assay.

[23] = test system: LB2241-RCC; assay type: functional, cell-based, Homo sapiens; settings: Homo sapiens, LB2241-RCC;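 further: cell viability assay measuring how strongly the cultured human renal carcinoma line is prevented from growing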
Description: SANGER: Inhibition of human LB2241-RCC cell growth in a cell viability assay.

[24] = test system: NB12; assay type: functional, cell-based, Homo sapiens; settings: Homo sapiens, NB12;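 further: growth inhibition of human NB12 cells, read out by a cell viability assay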
Description: SANGER: Inhibition of human NB12 cell growth in a cell viability assay.

[25] = test system: ALL-PO; assay type: functional, cell-based, Homo sapiens; settings: Homo sapiens, ALL-PO;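 further: growth inhibition of ALL-PO cells, read out by a cell viability assay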
Description: SANGER: Inhibition of human ALL-PO cell growth in a cell viability assay.

[26] = test system: 697; assay type: functional, cell-based, Homo sapiens; settings: Homo sapiens
Description: SANGER: Inhibition of human 697 cell growth in a cell viability assay.

[27] = test system: SH-4; assay type: functional, cell-based, Homo sapiens; settings: Homo sapiens, SH-4;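 further: growth inhibition of SH-4 cells, read out with a cell viability assay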
Description: SANGER: Inhibition of human SH-4 cell growth in a cell viability assay.

[28] = test system: NKM-1; assay type: functional, cell-based, Homo sapiens; settings: Homo sapiens, NKM-1;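 further: growth inhibition of NKM-1 cells, read out with a cell viability assay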
Description: SANGER: Inhibition of human NKM-1 cell growth in a cell viability assay.

[29] = test system: NCI-H1304; assay type: functional, cell-based, Homo sapiens; settings: Homo sapiens, NCI-H1304;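 further: growth inhibition of the cancer cell line, measured in a cell viability assay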
Description: SANGER: Inhibition of human NCI-H1304 cell growth in a cell viability assay.

[30] = test system: no-11; assay type: functional, cell-based, Homo sapiens; settings: Homo sapiens;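 further: growth inhibition of human NO-11 cells, read out with a cell viability assay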
Description: SANGER: Inhibition of human no-11 cell growth in a cell viability assay.

[31] = test system: SK-N-DZ; assay type: functional, cell-based, Homo sapiens; settings: Homo sapiens, SK-N-DZ;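 further: growth inhibition of the cancer cell line, read out through a viability assay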
Description: SANGER: Inhibition of human SK-N-DZ cell growth in a cell viability assay.

[32] = test system: TGBC24TKB; assay type: functional, cell-based, Homo sapiens; settings: Homo sapiens, TGBC24TKB;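 further: growth inhibition of human TGBC24TKB cells, read out with a cell viability assay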
Description: SANGER: Inhibition of human TGBC24TKB cell growth in a cell viability assay.

[33] = test system: NMC-G1; assay type: functional, cell-based, Homo sapiens; settings: Homo sapiens, NMC-G1;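 further: growth inhibition of the NMC-G1 cell line, measured with a cell viability read-out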
Description: SANGER: Inhibition of human NMC-G1 cell growth in a cell viability assay.

[34] = test system: SK-NEP-1; assay type: functional, cell-based, Homo sapiens; settings: Homo sapiens, SK-NEP-1;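 further: growth inhibition of human SK-NEP-1 cells, read out by a cell viability assay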
Description: SANGER: Inhibition of human SK-NEP-1 cell growth in a cell viability assay.

[35] = test system: LB996-RCC; assay type: functional, cell-based, Homo sapiens; settings: Homo sapiens, LB996-RCC
Description: SANGER: Inhibition of human LB996-RCC cell growth in a cell viability assay.

[36] = test system: JVM-2; assay type: functional, cell-based, Homo sapiens; settings: Homo sapiens, JVM-2;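 further: growth inhibition of JVM-2 cells determined by a cell viability assay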
Description: SANGER: Inhibition of human JVM-2 cell growth in a cell viability assay.

[37] = test system: SW 962; assay type: functional, cell-based, Homo sapiens; settings: Homo sapiens, SW 962;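 further: growth inhibition of human SW962 cells, read out by a cell viability assay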
Description: SANGER: Inhibition of human SW962 cell growth in a cell viability assay.

[38] = test system: COLO-684; assay type: functional, cell-based, Homo sapiens; settings: Homo sapiens, COLO-684
Description: SANGER: Inhibition of human COLO-684 cell growth in a cell viability assay.

[39] = test system: NOS-1; assay type: functional, cell-based, Homo sapiens; settings: Homo sapiens, NOS-1;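 further: growth inhibition of the human NOS-1 cell line, read out with a cell viability assay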
Description: SANGER: Inhibition of human NOS-1 cell growth in a cell viability assay.

[40] = test system: LB831-BLC; assay type: functional, cell-based, Homo sapiens; settings: Homo sapiens, LB831-BLC;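 further: growth inhibition of LB831-BLC cells, read out with a cell viability assay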
Description: SANGER: Inhibition of human LB831-BLC cell growth in a cell viability assay.

[41] = test system: ACN; assay type: functional, cell-based, Homo sapiens; settings: Homo sapiens, ACN;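 further: growth inhibition of the human ACN cell line, read out via cell viability testing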
Description: SANGER: Inhibition of human ACN cell growth in a cell viability assay.

[42] = test system: KARPAS-299; assay type: functional, cell-based, Homo sapiens; settings: Homo sapiens, KARPAS-299
Description: SANGER: Inhibition of human KARPAS-299 cell growth in a cell viability assay.

[43] = test system: MEG-01; assay type: functional, cell-based, Homo sapiens; settings: Homo sapiens, MEG-01;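 further: growth inhibition of MEG-01 cells, read out by a cell viability assay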
Description: SANGER: Inhibition of human MEG-01 cell growth in a cell viability assay.

[44] = test system: GI-ME-N; assay type: functional, cell-based, Homo sapiens; settings: Homo sapiens, GI-ME-N;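 further: growth inhibition of human GI-ME-N cells, read out with a cell viability assay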
Description: SANGER: Inhibition of human GI-ME-N cell growth in a cell viability assay.

[45] = test system: OCI-AML2; assay type: functional, cell-based, Homo sapiens; settings: Homo sapiens, OCI-AML2;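 further: growth inhibition of OCI-AML2 cells, read out with a cell viability assay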
Description: SANGER: Inhibition of human OCI-AML2 cell growth in a cell viability assay.

[46] = test system: NCI-H1395; assay type: functional, cell-based, Homo sapiens; settings: Homo sapiens, NCI-H1395;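 further: cell viability assay read-out quantifying reduced proliferation of human NCI-H1395 cells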
Description: SANGER: Inhibition of human NCI-H1395 cell growth in a cell viability assay.

[47] = test system: HuTu80; assay type: functional, cell-based, Homo sapiens, HUTU-80; settings: Homo sapiens, HuTu80;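 further: growth inhibition of HuTu80 human cells, determined with a cell viability readout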
Description: SANGER: Inhibition of human HUTU-80 cell growth in a cell viability assay.

[48] = test system: KS-1; assay type: functional, cell-based, Homo sapiens; settings: Homo sapiens, KS-1;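 further: growth inhibition of KS-1 cells, read out with a cell viability assay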
Description: SANGER: Inhibition of human KS-1 cell growth in a cell viability assay.

Measured: IC50

CCC/C=C/C=C/C(=O)O[C@H]1/C(=C/C(=O)OC)C[C@H]2C[C@H]([C@@H](C)O)OC(=O)C[C@H](O)C[C@@H]3C[C@H](OC(C)=O)C(C)(C)[C@](O)(C[C@@H]4C/C(=C/C(=O)OC)C[C@H](/C=C/C(C)(C)[C@]1(O)O2)O4)O3 [BRYOSTATIN 1]
> 8 nM: all assays above

CC(C)c1ccccc1Cc1cc(C(=O)Nc2ccc(S(=O)(=O)c3ccccc3C(C)(C)C)cc2)c(O)c(O)c1O
467 nM: [17]
505 nM: [33]
612 nM: [46]
552 nM: [12]
745 nM: [40]
1730 nM: [8]
207 nM: [31]
2780 nM: [5]
283 nM: [13]
3870 nM: [21]
2840 nM: [30]
24500 nM: [1]
789 nM: [2]
235 nM: [39]
696 nM: [41]
39.6 nM: [14]
957 nM: [7]
147 nM: [23]
403 nM: [44]
378 nM: [37]
1200 nM: [3]
87 nM: [47]
322 nM: [48]
136 nM: [24]
129 nM: [18]
250 nM: [35]
167 nM: [15]
227 nM: [27] | [32]

CC1(C)CNc2cc(NC(=O)c3cccnc3NCc3ccncc3)ccc21 [MOTESANIB]
549 nM: [31]
not listed: [3] | [47]
> 2000 nM: all other assays above
